According to patent US5672715A, “Herbicidal substituted 3-aryl-pyrazoles” (Monsanto Company, priority 1995, dated 1997):

Assays:
Assay type in all cases: in vivo
Wheat [1] = test: post-emergence herbicide test; conditions: Triticum aestivum, post-emergence, 0.25 lb/A; read-out: % plant inhibition
In short: (§1)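 Greenhouse plants grown from seeds in topsoil were treated two to three weeks after sowing with a spray solution or suspension of test chemical with about 0.4% by volume emulsifier, applied at 1870 L/Ha and 170.3 kPa. Percent inhibition per species was the endpoint.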

Soybean [2] = test: post-emergence herbicide test; conditions: Glycine max, post-emergence, 0.25 lb/A; read-out: % plant inhibition
In short: as §1

Cocklebur [3] = test: post-emergence herbicide test; conditions: Xanthium strumarium, post-emergence, 0.25 lb/A; read-out: % plant inhibition
In short: as §1

Bedstraw Catchweed [4] = test: post-emergence herbicide test; conditions: Galium aparine, post-emergence, 0.25 lb/A; read-out: % plant inhibition
In short: as §1

Common Chickweed [5] = test: post-emergence herbicide test; conditions: post-emergence, 0.25 lb/A; read-out: % plant inhibition
In short: as §1

Green Foxtail [6] = test: post-emergence herbicide test; conditions: Setaria viridis, post-emergence, 0.25 lb/A; read-out: % plant inhibition
In short: as §1

Barnyardgrass [7] = test: post-emergence herbicide test; conditions: Echinochloa crus-galli, post-emergence, 0.25 lb/A; read-out: % plant inhibition
In short: as §1

Birdseye Speedwell [8] = test: post-emergence herbicide test; conditions: post-emergence, 0.25 lb/A; read-out: % plant inhibition
In short: as §1

Downy Brome [9] = test: post-emergence herbicide test; conditions: Bromus tectorum, post-emergence, 0.25 lb/A; read-out: % plant inhibition
In short: as §1

Velvetleaf [10] = test: post-emergence herbicide test; conditions: Abutilon theophrasti, post-emergence, 0.25 lb/A; read-out: % plant inhibition
In short: as §1

Seedling Johnsongrass [11] = test: post-emergence herbicide test; conditions: Sorghum halepense, post-emergence, 0.25 lb/A; read-out: % plant inhibition
In short: as §1

Wild Oats [12] = test: post-emergence herbicide test; conditions: Avena fatua, post-emergence, 0.25 lb/A; read-out: % plant inhibition
In short: as §1

Rape [13] = test: post-emergence herbicide test; conditions: post-emergence, 0.25 lb/A; read-out: % plant inhibition
In short: as §1

Giant Foxtail [14] = test: post-emergence herbicide test; conditions: Setaria faberi, post-emergence, 0.25 lb/A; read-out: % plant inhibition
In short: as §1

Blackgrass [15] = test: post-emergence herbicide test; conditions: Alopecurus myosuroides, post-emergence, 0.25 lb/A; read-out: % plant inhibition
In short: as §1

Morning Glory [16] = test: post-emergence herbicide test; conditions: Ipomoea, post-emergence, 0.25 lb/A; read-out: % plant inhibition
In short: as §1

Corn [17] = test: post-emergence herbicide test; conditions: Zea mays, post-emergence, 0.25 lb/A; read-out: % plant inhibition
In short: as §1

Wheat [18] = test: pre-emergence herbicide test; conditions: Triticum aestivum, pre-emergence, 0.25 lb/A; read-out: % plant inhibition
In short: (§2)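 Known amounts of active ingredient went into the cover soil over seeds sown in pans, either before or after the layer was spread. An initial 1/4 inch overhead irrigation was given in some cases; otherwise pans were subirrigated. Rating was % inhibition at ~14 days.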

Soybean [19] = test: pre-emergence herbicide test; conditions: Glycine max, pre-emergence, 0.25 lb/A; read-out: % plant inhibition
In short: as §2

Cocklebur [20] = test: pre-emergence herbicide test; conditions: Xanthium strumarium, pre-emergence, 0.25 lb/A; read-out: % plant inhibition
In short: as §2

Bedstraw Catchweed [21] = test: pre-emergence herbicide test; conditions: Galium aparine, pre-emergence, 0.25 lb/A; read-out: % plant inhibition
In short: as §2

Common Chickweed [22] = test: pre-emergence herbicide test; conditions: pre-emergence, 0.25 lb/A; read-out: % plant inhibition
In short: as §2

Green Foxtail [23] = test: pre-emergence herbicide test; conditions: Setaria viridis, pre-emergence; 0.25 lb/A; read-out: % plant inhibition
In short: as §2

Barnyardgrass [24] = test: pre-emergence herbicide test; conditions: Echinochloa crus-galli, pre-emergence, 0.25 lb/A; read-out: % plant inhibition
In short: as §2

Birdseye Speedwell [25] = test: pre-emergence herbicide test; conditions: pre-emergence, 0.25 lb/A; read-out: % plant inhibition
In short: as §2

Downy Brome [26] = test: pre-emergence herbicide test; conditions: Bromus tectorum, pre-emergence, 0.25 lb/A; read-out: % plant inhibition
In short: as §2

Velvetleaf [27] = test: pre-emergence herbicide test; conditions: Abutilon theophrasti, pre-emergence, 0.25 lb/A; read-out: % plant inhibition
In short: as §2

Seedling Johnsongrass [28] = test: pre-emergence herbicide test; conditions: Sorghum halepense, pre-emergence, 0.25 lb/A; read-out: % plant inhibition
In short: as §2

Wild Oats [29] = test: pre-emergence herbicide test; conditions: Avena fatua, pre-emergence, 0.25 lb/A; read-out: % plant inhibition
In short: as §2

Rape [30] = test: pre-emergence herbicide test; conditions: pre-emergence, 0.25 lb/A; read-out: % plant inhibition
In short: as §2

Giant Foxtail [31] = test: pre-emergence herbicide test; conditions: Setaria faberi, pre-emergence, 0.25 lb/A; read-out: % plant inhibition
In short: as §2

Blackgrass [32] = test: pre-emergence herbicide test; conditions: Alopecurus myosuroides, pre-emergence, 0.25 lb/A; read-out: % plant inhibition
In short: as §2

Morning Glory [33] = test: pre-emergence herbicide test; conditions: Ipomoea, pre-emergence, 0.25 lb/A; read-out: % plant inhibition
In short: as §2

Corn [34] = test: pre-emergence herbicide test; conditions: Zea mays, pre-emergence, 0.25 lb/A; read-out: % plant inhibition
In short: as §2

Compound	inhibition at 280.212 g/ha (Wheat [1]) [%]	inhibition at 280.212 g/ha (Soybean [2]) [%]	inhibition at 280.212 g/ha (Cocklebur [3]) [%]	inhibition at 280.212 g/ha (Bedstraw Catchweed [4]) [%]	inhibition at 280.212 g/ha (Common Chickweed [5]) [%]	inhibition at 280.212 g/ha (Green Foxtail [6]) [%]	inhibition at 280.212 g/ha (Barnyardgrass [7]) [%]	inhibition at 280.212 g/ha (Birdseye Speedwell [8]) [%]	inhibition at 280.212 g/ha (Downy Brome [9]) [%]	inhibition at 280.212 g/ha (Velvetleaf [10]) [%]	inhibition at 280.212 g/ha (Seedling Johnsongrass [11]) [%]	inhibition at 280.212 g/ha (Wild Oats [12]) [%]	inhibition at 280.212 g/ha (Rape [13]) [%]	inhibition at 280.212 g/ha (Giant Foxtail [14]) [%]	inhibition at 280.212 g/ha (Blackgrass [15]) [%]	inhibition at 280.212 g/ha (Morning Glory [16]) [%]	inhibition at 280.212 g/ha (Corn [17]) [%]	inhibition at 280.212 g/ha (Wheat [18]) [%]	inhibition at 280.212 g/ha (Soybean [19]) [%]	inhibition at 280.212 g/ha (Cocklebur [20]) [%]	further results
Cc1c(-c2ccc(Cl)cc2)nn(C)c1C(F)(F)F [Compound 7, 3-(4-chlorophenyl)-1,4-dimethyl-5-(trifluoromethyl)pyrazole]	5	5	0	35	0	20	0	65	5	5	0	5	0	0	5	0	0	0	0	0	inhibition at 280.212 g/ha (Bedstraw Catchweed [21]): 5%; inhibition at 280.212 g/ha (Common Chickweed [22]): 0%; inhibition at 280.212 g/ha (Green Foxtail [23]): 0%; inhibition at 280.212 g/ha (Barnyardgrass [24]): 0%; inhibition at 280.212 g/ha (Birdseye Speedwell [25]): 0%; inhibition at 280.212 g/ha (Downy Brome [26]): 0%; inhibition at 280.212 g/ha (Velvetleaf [27]): 0%; inhibition at 280.212 g/ha (Seedling Johnsongrass [28]): 25%; inhibition at 280.212 g/ha (Wild Oats [29]): 0%; inhibition at 280.212 g/ha (Rape [30]): 0%; inhibition at 280.212 g/ha (Giant Foxtail [31]): 15%; inhibition at 280.212 g/ha (Blackgrass [32]): 0%; inhibition at 280.212 g/ha (Morning Glory [33]): 0%; inhibition at 280.212 g/ha (Corn [34]): 0%
Cc1c(-c2cc(C(=O)OCC3CNCCO3)c(Cl)cc2F)nn(C)c1C(F)(F)F (stereo not shown) [Compound 47]	15	30	100	90	95	70	5	95	20	100	50	30	65	5	20	70	50	0	0	0	inhibition at 280.212 g/ha (Bedstraw Catchweed [21]): 95%; inhibition at 280.212 g/ha (Common Chickweed [22]): 70%; inhibition at 280.212 g/ha (Green Foxtail [23]): 100%; inhibition at 280.212 g/ha (Barnyardgrass [24]): 75%; inhibition at 280.212 g/ha (Birdseye Speedwell [25]): 70%; inhibition at 280.212 g/ha (Downy Brome [26]): 20%; inhibition at 280.212 g/ha (Velvetleaf [27]): 50%; inhibition at 280.212 g/ha (Seedling Johnsongrass [28]): 50%; inhibition at 280.212 g/ha (Wild Oats [29]): 5%; inhibition at 280.212 g/ha (Rape [30]): 5%; inhibition at 280.212 g/ha (Giant Foxtail [31]): 75%; inhibition at 280.212 g/ha (Blackgrass [32]): 25%; inhibition at 280.212 g/ha (Morning Glory [33]): 70%; inhibition at 280.212 g/ha (Corn [34]): 0%
CCOC(=O)COC(=O)c1cc(-c2nn(C)c(C(F)(F)F)c2C)c(F)cc1Cl [Compound 17]	15	30	95	95	90	20	70	98	30	99	65	20	20	45	15	90	10	0	5	10	inhibition at 280.212 g/ha (Bedstraw Catchweed [21]): 100%; inhibition at 280.212 g/ha (Common Chickweed [22]): 100%; inhibition at 280.212 g/ha (Green Foxtail [23]): 35%; inhibition at 280.212 g/ha (Barnyardgrass [24]): 0%; inhibition at 280.212 g/ha (Birdseye Speedwell [25]): 100%; inhibition at 280.212 g/ha (Downy Brome [26]): 30%; inhibition at 280.212 g/ha (Velvetleaf [27]): 50%; inhibition at 280.212 g/ha (Seedling Johnsongrass [28]): 5%; inhibition at 280.212 g/ha (Wild Oats [29]): 15%; inhibition at 280.212 g/ha (Rape [30]): 90%; inhibition at 280.212 g/ha (Giant Foxtail [31]): 40%; inhibition at 280.212 g/ha (Blackgrass [32]): 20%; inhibition at 280.212 g/ha (Morning Glory [33]): 50%; inhibition at 280.212 g/ha (Corn [34]): 0%
CCC(C)OC(=O)c1cc(-c2nn(C)c(C(F)(F)F)c2C)c(F)cc1Cl (stereo not shown) [Compound 58]	18	85	99	90	95	85	85	100	85	100	95	85	65	95	80	100	20	5	25	75	inhibition at 280.212 g/ha (Bedstraw Catchweed [21]): 95%; inhibition at 280.212 g/ha (Common Chickweed [22]): 100%; inhibition at 280.212 g/ha (Green Foxtail [23]): 100%; inhibition at 280.212 g/ha (Barnyardgrass [24]): 100%; inhibition at 280.212 g/ha (Birdseye Speedwell [25]): 100%; inhibition at 280.212 g/ha (Downy Brome [26]): 100%; inhibition at 280.212 g/ha (Velvetleaf [27]): 100%; inhibition at 280.212 g/ha (Seedling Johnsongrass [28]): 100%; inhibition at 280.212 g/ha (Wild Oats [29]): 75%; inhibition at 280.212 g/ha (Rape [30]): 50%; inhibition at 280.212 g/ha (Giant Foxtail [31]): 100%; inhibition at 280.212 g/ha (Blackgrass [32]): 95%; inhibition at 280.212 g/ha (Morning Glory [33]): 100%; inhibition at 280.212 g/ha (Corn [34]): 20%
